From the NIST ThermoML archive (doi:10.1007/s10765-006-0018-5) come the findings set out here.

The conditions of data set [1]: Liquid.
Data set [2] can be described thus: refractive index (Na D-line) (dimensionless). The note with it: 298.15 K; 101.33 kPa; Liquid; Standard Abbe refractometry.

± gives the expanded uncertainty stated by the source.

A word on the vapor or sublimation pressure: it is the equilibrium pressure above the liquid or solid. What is called refractive index is a measure of how strongly the sample bends light. In the case of `Cc1ccc(C)cc1` [1,4-dimethylbenzene], the “vapor or sublimation pressure” value in data set [1] (410 K) worked out at 97.3 ± 1.6 kPa. In addition, the refractive index in data set [2] is on record as 1.49325 ± 0.00075.

On to `CCCCO` [butan-1-ol], for which, in data set [1] (389.5 K), the “vapor or sublimation pressure” value is on record as 97.3 ± 1.6 kPa. Also, in data set [2], the refractive index was found to be 1.3973 ± 0.0008.
